# Measurements taken from patent US5459257A, “Sulfated oligoglycoside acylate and antiviral agent containing the same as active ingredient” (priority 1993, dated 1995).
# Read-outs that look alike come from different tables or passages of the source.
# Tests used:
# HIV [1] = assay: anti-HIV activity, inhibition of HIV-induced cytopathicity in MT-4 cells (MTT method); type: cell-based; settings: for EC50: HIV-infected MT-4 cells, MOI 0.01, 5 days, 37° C.; for S.I. (CC50/EC50): MT-4 cells, ratio of CC50 to EC50, 7200 min
# Description: A test compound having various concentrations were placed in a 96-well microtiter plate along with HIV-infected MT-4 cells (2.5×10^4 /well, MOI (multiplicity of infection): 0.01) immediately after infection thereof. In order to ascertain the cytotoxicty of the test compound with respect to MT-4 cells, mock-infected (non-infected) cells were cultured in an identical manner along with the test compound of various concentrations. After incubating for 5 days at 37° C. in a CO2 atmosphere, the number of living cells were determined by using MTT method. The anti-HIV activity was evaluated with the method written by R. Pauwels, et al. (R. Pauwels, et al., J. Virol Methods, 20, 309 to 321 (1988)).
# The anti-HIV activity is shown in terms of EC50 (50% effective concentration) that is the concentration of a compound which inhibits 50% of HIV-induced cytopathicity in MT-4 cells, and the cytotoxity is shown in terms of CC50 (cytotoxic concentration) that is the concentration of a compound which reduces 50% of viability of mock-infected MT-4 cells. Selectivity Index (S.I.) is expressed by the ratio of CC50 to EC50 (CC50 /EC50).
# MT-4 cells = assay: cytotoxicity in mock-infected MT-4 cells (MTT method); type: cell-based; settings: mock-infected MT-4 cells, 5 days, 37° C.
# Description: A test compound having various concentrations were placed in a 96-well microtiter plate along with HIV-infected MT-4 cells (2.5×10^4 /well, MOI (multiplicity of infection): 0.01) immediately after infection thereof. In order to ascertain the cytotoxicty of the test compound with respect to MT-4 cells, mock-infected (non-infected) cells were cultured in an identical manner along with the test compound of various concentrations. After incubating for 5 days at 37° C. in a CO2 atmosphere, the number of living cells were determined by using MTT method.
# Selectivity Index (S.I.) is expressed by the ratio of CC50 to EC50 (CC50 /EC50).
# HIV [2] = assay: anti-HIV activity of serum after intravenous administration to mice; type: in vivo; settings: for reciprocal number of concentration of the compound at 50% cell viability / reciprocal number of concentration of dextran sulfate at 50% cell viability: mouse serum; for reciprocal number of concentration of the compound at 50% cell viability: 32 mg/kg; for detection/duration of activity in serum: mouse, i.v., Compound 6 32 mg/kg up to 12 hours, dextran sulfate 80 mg/kg up to 60 min; for reciprocal number of concentration of dextran sulfate at 50% cell viability: 80 mg/kg
# Description: The effects of Compound 6 and dextran sulfate in vivo experiment were studied by duration of the activity using mouse.
# Compound 6 were dissolved with saline at the concentration of 32 mg/10 ml. Dextran sulfate (Control compound: M.W=8000: Sigma) were dissolved with it at the concentration of 80 mg/10 ml.
# (§1) Mouse (Crj:CD-1(ICR)) (supplier: Charles River Japan, Inc.), six weeks old were used for this study.
# Four groups (for 1, 4, 6 and 12 hours) of mice (one group: three mice) were used for the in vivo experiments of the Compound 6.
# The twelve mice were given an intravenous injection of the compound (in the tail vein; Dose 32 mg/kg).
# Three groups (for 20, 40 and 60 minutes) of mice (one group: two mice) were used for dextran sulfate such a method as described in Compound 6 (Dose 80 mg/kg). At decided times after injection, the blood was collected and serum was separated by centrifugation at low speed.
# The serum samples were stored at -80° C. until assayed. Each serum sample was diluted with culture medium to evaluate the effective concentration (the maximum concentration was set up to 10%). The method of this anti-HIV activity evaluation was the same one as described in EXAMPLE 49.
# (*)Various concentration of the serum solutions (diluted with the medium
# and the maximum concentration is 10%) were used for evaluation of the
# shown. That is why the higher the reciprocal number, the higher the […]
# rabbit blood [3] = assay: effects on blood clotting, whole blood clotting time; settings: for comparing strength of effects on blood clotting: at the concentration of more than 0.1%; for clotting time: rabbit whole blood
# Description: (§2) Sodium heparin (Kodama) used as positive control was diluted with saline at the concentration of 120 U/ml.
# (§3) Japan White rabbits (supplier: Kitayama Labes), 4 months old, were used for this study.
# (§4) Cardiopuncture was performed in a rabbit, and at when blood was started to be flowed into the syringe, the timer was made to start. The whole blood collected was carefully flowed into double glass tubes incubated. After putting the samples calmly for 3 minutes, the first tube was tilted gently every 30 seconds and the current of blood was observed. When blood in the first tube was clotted, the same operation was performed in the second tube. When the blood was clotted in the second tube, the timer was stopped, and this end point was recorded as whole blood clotting time.
# rabbit blood [4] = system: rabbit blood
# Description: as §2, §3, §4
# [5] = in vivo; cited from earlier work
# HIV [6] = assay: anti-HIV activity of serum after oral administration to mice; type: in vivo; settings: for reciprocal number of concentration at 50% cell viability: mouse serum
# Description: The effects of orally administration of Compound 1 in vivo experiment were studied by duration of the activity using mouse.
# Compound 1 was dissolved with distilled water at the concentrations of 500 mg/10 ml and 1000 mg/10 ml.
# as §1
# Three groups (for 1, 2 and 3 hours) of mice (one group: three mice) were used for the in vivo experiments. Nine mice were given an orally administered of Compound 1 at a dose of 500 mg/kg or 1.0 g/kg.
# At decided times after administration, the blood was collected and the serum was collected by centrifugation at low speed.
# The serum samples were stored at -80° C. until assayed.
# Each serum sample was diluted to evaluate the effective concentration with culture medium. The evaluation method was the same as described the section of Anti-HIV activity.
substance,measurement,setting,value
"Sulfated n-dodecyl O-2,4-difluorobenzoyl-β-D-laminaripentaoside [Compound 6]",EC50,HIV [1],1.8 µg/mL
same,S.I. (CC50/EC50),HIV [1],> 556
same,CC50,MT-4 cells,"> 1,000 μg/ml"
same,reciprocal number of concentration of the compound at 50% cell viability,HIV [2]; 1 hour after i.v. injection,145
same,reciprocal number of concentration of the compound at 50% cell viability,HIV [2]; 4 hours after i.v. injection,94
same,reciprocal number of concentration of the compound at 50% cell viability,HIV [2]; 6 hours after i.v. injection,60
same,reciprocal number of concentration of the compound at 50% cell viability,HIV [2]; 12 hours after i.v. injection,48
same,detection/duration of activity in serum,HIV [2],detected at a high concentration
same,comparing strength of effects on blood clotting,rabbit blood [3],dextran sulfate>1>6
same,clotting time,rabbit blood [3]; 0.01%,7.4 ± 0.6 min
same,clotting time,rabbit blood [3]; 0.1%,7.4 ± 0.6 min
same,clotting time,rabbit blood [3]; 1.0%,21.1 ± 1.7 min
dextran sulfate,reciprocal number of concentration of dextran sulfate at 50% cell viability,HIV [2]; 20 min after i.v. injection,< 10
same,reciprocal number of concentration of dextran sulfate at 50% cell viability,HIV [2]; 40 min after i.v. injection,< 10
same,reciprocal number of concentration of dextran sulfate at 50% cell viability,HIV [2]; 60 min after i.v. injection,< 10
same,detection/duration of activity in serum,HIV [2],could not be detected
same,comparing strength of effects on blood clotting,rabbit blood [4],dextran sulfate>1>6
same,absorption after oral administration,[5],poorly absorbed
Sulfated n-dodecyl O-benzoyl-β-D-laminaripentaoside [Compound 1],EC50,HIV [1],3.2 µg/mL
same,S.I. (CC50/EC50),HIV [1],254
same,CC50,MT-4 cells; 7200 min,814 µg/mL
same,reciprocal number of concentration at 50% cell viability,"HIV [6]; 1 hour after oral administration, 500 mg/kg",15.9
same,reciprocal number of concentration at 50% cell viability,"HIV [6]; 1 hour after oral administration, 1.0 g/kg",55.6
same,reciprocal number of concentration at 50% cell viability,"HIV [6]; 2 hours after oral administration, 500 mg/kg",19.2
same,reciprocal number of concentration at 50% cell viability,"HIV [6]; 2 hours after oral administration, 1.0 g/kg",83.8
same,reciprocal number of concentration at 50% cell viability,"HIV [6]; 3 hours after oral administration, 500 mg/kg",26.7
same,reciprocal number of concentration at 50% cell viability,"HIV [6]; 3 hours after oral administration, 1.0 g/kg",54.1
same,detection of activity in serum after oral administration,"HIV [6]; mouse, oral, 500 mg/kg or 1.0 g/kg",detected at a high concentration
same,comparing strength of effects on blood clotting,rabbit blood [3],dextran sulfate>1>6
same,clotting time,rabbit blood [3]; 0.01%,8.0 ± 0.5 min
same,clotting time,rabbit blood [3]; 0.1%,8.3 ± 0.7 min
same,clotting time,rabbit blood [3]; 1.0%,27.3 ± 3.0 min
